Measured values from patent US7687473B2, “5-amino-4-imidazolecarboxamide riboside and its nucleobase as potentiators of antifolate transport and metabolism” (Health Research, Inc., priority 2005, dated 2010).

What was measured:
CCRF-CEM cells = experiment: [3H]leucovorin uptake in CCRF-CEM cells; format: cell-based, human; settings: pre-incubation with Z alone, 1 μM [3H]LV
Protocol: Quantitation of folate and antifolate uptake. The method is essentially as follows. Briefly, logarithmically growing (3-5×10^5/ml) CCRF-CEM cells were harvested at room temperature by centrifugation at 1000×g for 5 min. After washing with the appropriate medium, cells were suspended at ≈2×10^7 cells/ml for use in transport studies. […] Anion-free MHS contains 250 mM sucrose and 20 mM HEPES, titrated to pH 7.4 with MgO. […] Uptake was measured as a function of time for 30 min (for rate and extent measurements) or over 5 min (studies requiring initial velocities). […] Uptake was terminated by diluting 100 μL samples into 1 ml of iced 0.9% NaCl. […] The supernatant was aspirated. The cell pellet was washed once with 1 ml iced 0.9% NaCl and centrifuged as above. The washed pellet was solubilized in 1 ml of 0.3% Triton X-100 by incubation for 60 min at 37° C. The solubilized pellet was transferred to a scintillation vial, 10 ml of Liquiscint (National Diagnostics, Atlanta, Ga.) was added and radioactivity was quantitated in a Beckman Model LS6500 liquid scintillation counter. Separate samples at the longest incubation time used in a particular experiment were harvested for HPLC analysis of intracellular contents as above, except that after the second wash the pellets were extracted with 1 ml boiling 0.1 M Na-phosphate, pH 5.5. The extract was clarified by centrifugation and the supernatant was filtered through an MPS-1 filter unit (Amicon) prior to HPLC analysis.

[1] = tested on: dCK-deficient subline of CCRF-CEM; experiment: [3H]MTX uptake in deoxycytidine kinase-deficient subline; format: cell-based, human; settings: compared to parental CCRF-CEM
Protocol: Z metabolism by deoxycytidine kinase is not essential for Z potentiation. These experiments were conducted to determine if Z itself can cause potentiation orf needs to be metabolized to exert its effect. For these experiments, a deoxycytidine kinase (dCK)-deficient subline of CCRF-CEM was used. Although designated as dCK, this enzyme also phosphorylates the purines deoxyadenosine, deoxyguanosine, and fludarabine. Use of this subline allowed us to test the hypothesis that phosphorylation of Z to ZMP by dCK is essential for potentiation. […] Thus it appears that dCK is not absolutely required for Z potentiation, but may contribute to the metabolism.

[2] = tested on: R2 (MTX-resistant CCRF-CEM subline); experiment: Inhibition of growth of RFC-defective subline R2; format: cell-based; settings: Homo sapiens, continuous exposure, no Z, read-out: EC50 against R2
Protocol: Inhibition of growth of human cell lines in vitro. Inhibition of growth of CCRF-CEM in continuous and intermittent drug exposures was measured. EC50 values were determined from plots of percent control growth versus the logarithm of drug concentration.
TMTX was present in both conditions to establish DHFR inhibition, since that appears to be required.

SMILES | Potentiation of [3H]LV uptake (CCRF-CEM cells) | Potentiation of [3H]MTX uptake in dCK-deficient subline [1] | EC50 [2]
NC(=O)c1ncn([C@@H]2O[C@H](CO)[C@@H](O)[C@H]2O)c1N [Z, 5-amino-4-imidazolecarboxamide riboside] | does not potentiate | showed potentiation by Z, although to a slightly lower level | –
CN(Cc1cnc2nc(N)nc(N)c2n1)c1ccc(C(=O)N[C@@H](CCC(=O)O)C(=O)O)cc1 [MTX, 4-amino-10-methylpteroylglutamic acid] | – | – | 2200 nM
